In patent US20060223889A1 (priority 2003, published 2006):

Tests used:
[1] = Stability in aqueous solution; assay type: physicochemical
[2] = physchem; settings: pH 7, water

hydrolysis when dissolved in water [1]: readily hydrolyses
solubility [2]: ≤ 1300 µg/mL
Structure (SMILES): CS(=O)(=O)c1ccc([C@@H](O)[C@@H](CF)NC(=O)C(Cl)Cl)cc1 [Florfenicol, D-(threo)-1-p-methylsulfonyl phenyl-2-dichloroacetamido-3-fluoro-1-propanol]
